From patent EP0446748A2, “Use of perylenedyes for the preparation of write, print or copying materials” (priority 1990, dated 1991)

Experiment: Solubility of the dyes in organic solvent, determined after one week of the solution in contact with the solid dye with occasional shaking
Assay type: physicochemical
Details: CHCl₃, 20 °C; 10080 min
Text: Die Perylenfarbstoffe werden aus technischen Perylen-3,4:9,10-tetracarbonsäurebisanhydrid (2,55 mmol), dem entsprechenden primären Amin oder dem Aminhydrochlorid (6 mmol) und Imidazol (5 g) dargestellt und werden entsprechend der Literatur gereinigt (siehe z.B. Chem. Ber. 118 4641 (1985) und Chem. Ber. 121 225 (1988)). Die Angaben beziehen sich auf die Darstellung von hochreine Farbstoffen. Die Perylenfarbstoffe der allgemeinen Formel I mit R¹ = R² = Hexyl, Dodecyl, Octadecyl, Cycloalkyl bis zu Cyclopentadecyl und sec-Alkyl bis 1-Hexylheptyl sind in Chem. Ber. 121 225 (1988) beschriebn. Die Löslichkeiten der Farbstoffe sind nach einer Woche der Lösung mit dem festen Farbstoff bei gelegentlichem Umschütteln bestimmt worden.

SMILES	Löslichkeit (CHCl₃/20^oC)
CCCCCN1C(=O)c2ccc3c4ccc5c6c(ccc(c7ccc(c2c37)C1=O)c64)C(=O)N(CCCCC)C5=O [N,N'-Di(1-pentyl)perylen-3,4:9,10-bis(dicarboximid)]	47 mg/100 ml
CCCCCCCCCN1C(=O)c2ccc3c4ccc5c6c(ccc(c7ccc(c2c37)C1=O)c64)C(=O)N(CCCCCCCCC)C5=O [N,N'-Di(n-nonyl)perylen-3,4:9,10-bis(dicarboximid)]	11 mg/100 ml
CCCCN1C(=O)c2ccc3c4ccc5c6c(ccc(c7ccc(c2c37)C1=O)c64)C(=O)N(CCCC)C5=O [N,N'-Di(1-butyl)perylen-3,4:9,10-bis(dicarboximid)]	8,9 mg/100 ml
CCCN1C(=O)c2ccc3c4ccc5c6c(ccc(c7ccc(c2c37)C1=O)c64)C(=O)N(CCC)C5=O [N,N'-Di(1-Propyl)perylen-3,4:9,10-bis(dicarboximid)]	5,3 mg/100 ml

Same assay, conditions: CHCl₃, temperature not given; 10080 min

SMILES	Löslichkeit (CHCl₃)
O=C1c2ccc3c4ccc5c6c(ccc(c7ccc(c2c37)C(=O)N1C1CCCCCCCCCCCCCCC1)c64)C(=O)N(C1CCCCCCCCCCCCCCC1)C5=O [N,N'-Dicyclohexadecylperylen-3,4:9,10-bis(dicarboximid)]	0.56 g/100ml
CCCCCCCCCCCCCCCCN1C(=O)c2ccc3c4ccc5c6c(ccc(c7ccc(c2c37)C1=O)c64)C(=O)N(CCCCCCCCCCCCCCCC)C5=O [N,N'-Di(n-hexadecyl)perylen-3,4:9,10-bis(dicarboximid)]	6.0 mg/100 ml
CCCCCCCCCCCCCCCCCCN1C(=O)c2ccc3c4ccc5c6c(ccc(c7ccc(c2c37)C1=O)c64)C(=O)N(CCCCCCCCCCCCCCCCCC)C5=O [N,N'-Di(n-octadecyl)perylen-3,4:9,10-bis(dicarboximid)]	1,8 mg/100 ml
CCCCCCCCCCCCCCN1C(=O)c2ccc3c4ccc5c6c(ccc(c7ccc(c2c37)C1=O)c64)C(=O)N(CCCCCCCCCCCCCC)C5=O [N,N'-Di(n-tetradecyl)perylen-3,4:9,10-bis(dicarboximid)]	5.4 mg/100 ml

Same assay, conditions: n-Heptan, 20 °C; 10080 min

SMILES	Löslichkeit (n-Heptan/20^oC) [g/100ml]
CCCCCCCC(CCCCCCC)N1C(=O)c2ccc3c4ccc5c6c(ccc(c7ccc(c2c37)C1=O)c64)C(=O)N(C(CCCCCCC)CCCCCCC)C5=O [N,N'-Di(1-heptyloctyl)perylen-3,4:9,10-bis(dicarboximid)]	0.59
CCCCCCCCC(CCCCCCCC)N1C(=O)c2ccc3c4ccc5c6c(ccc(c7ccc(c2c37)C1=O)c64)C(=O)N(C(CCCCCCCC)CCCCCCCC)C5=O [N,N'-Di(1-octylnonyl)perylen-3,4:9,10-bis(dicarboximid)]	0.30

Same assay, conditions: n-Heptan, temperature not given; 10080 min

SMILES	Löslichkeit (n-Heptan)
CCCCCCCCCCC(CCCCCCCCCC)N1C(=O)c2ccc3c4ccc5c6c(ccc(c7ccc(c2c37)C1=O)c64)C(=O)N(C(CCCCCCCCCC)CCCCCCCCCC)C5=O [N,N'-Di(1-decylundecyl)Perylen-3,4:9,10-bis(dicarboximid)]	4.8 g/100 ml
CCCCCCCCCCCCCCCCCCC(CCCCCCCCCCCCCCCCCC)N1C(=O)c2ccc3c4ccc5c6c(ccc(c7ccc(c2c37)C1=O)c64)C(=O)N(C(CCCCCCCCCCCCCCCCCC)CCCCCCCCCCCCCCCCCC)C5=O [N,N'-Di(1-octadecylnonadecyl)perylen-3,4:9,10-bis(dicarboximid)]	26 mg/100 ml
CCCCCCCCCC(CCCCCCCCC)N1C(=O)c2ccc3c4ccc5c6c(ccc(c7ccc(c2c37)C1=O)c64)C(=O)N(C(CCCCCCCCC)CCCCCCCCC)C5=O [N,N'-Di(1-nonyldecyl)perylen-3,4:9,10-bis(dicarboximid)]	35 g/100 ml
CCCCCCCCCCCCCCCCC(CCCCCCCCCCCCCCCC)N1C(=O)c2ccc3c4ccc5c6c(ccc(c7ccc(c2c37)C1=O)c64)C(=O)N(C(CCCCCCCCCCCCCCCC)CCCCCCCCCCCCCCCC)C5=O [N,N'-Di(1-hexadecylheptadecyl)perylen-3,4:9,10-bis(dicarboximid)]	0.13 g/100 ml
CCCCCCCCCCCCC(CCCCCCCCCCCC)N1C(=O)c2ccc3c4ccc5c6c(ccc(c7ccc(c2c37)C1=O)c64)C(=O)N(C(CCCCCCCCCCCC)CCCCCCCCCCCC)C5=O [N,N'-Di(1-dodecyltridecyl)perylen-3,4:9,10-bis(dicarboximid)]	67 mg/100 ml
